According to PubChem BioAssay AID1259411 (Chemical Carcinogenesis Research Information System (CCRIS), 2018):
Calls of active or inactive are those of the source. The rule behind the calls is not given here.

System: rodent carcinogenicity bioassays, tumor incidence
Assay: CCRIS carcinogenicity studies
Settings: Dose: 0, Dose: 0
In short: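 Archive of carcinogenicity, mutagenicity, tumor promotion and tumor inhibition results drawn from journals, NCI reports and other sources, expert-reviewed; covers 1985-2011 and is no longer updated.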

## O=C1CCCO1
Species: MOUSE, Strain/Sex: B6C3F1/FEMALE, Route: GAVAGE, 262, 525 MG/KG IN CORN OIL 5 D/WK FOR 103 WK (STUDY DURATION: 2 YR), 262, 525 MG/KG IN CORN OIL 5 D/WK FOR 103 WK (STUDY DURATION: 2 YR)
  carcinogen call: inactive; negative
Species: MOUSE, Strain/Sex: B6C3F1/FEMALE, Route: GAVAGE, 262, 525 MG/KG IN CORN OIL 5 D/WK FOR 103 WK (STUDY DURATION: 105 WK), 262, 525 MG/KG IN CORN OIL 5 D/WK FOR 103 WK (STUDY DURATION: 105 WK), Tumor Site: Type of Lesion: ADRENAL MEDULLA: BENIGN OR MALIGNANT PHEOCHROMOCYTOMA
  carcinogen call: equivocal
Species: RAT, Strain/Sex: F344/FEMALE, Route: GAVAGE, 225, 450 MG/KG IN CORN OIL 5 D/WK FOR 103 WK (STUDY DURATION: 2 YR), 225, 450 MG/KG IN CORN OIL 5 D/WK FOR 103 WK (STUDY DURATION: 2 YR)
  carcinogen call: inactive; negative
Species: RAT, Strain/Sex: F344/MALE, Route: GAVAGE, 112, 225 MG/KG IN CORN OIL 5 D/WK FOR 103 WK (STUDY DURATION: 2 YR), 112, 225 MG/KG IN CORN OIL 5 D/WK FOR 103 WK (STUDY DURATION: 2 YR)
  carcinogen call: inactive; negative

## CC(=O)c1ccc(S(=O)(=O)NC(=O)NC2CCCCC2)cc1
Species: MOUSE, Strain/Sex: B6C3F1/FEMALE, Route: ORAL, 6359, 12718 PPM IN DIET, TWA, 6359, 12718 PPM IN DIET, TWA
  carcinogen call: inactive; negative
Species: MOUSE, Strain/Sex: B6C3F1/MALE, Route: ORAL, 6359, 12718 PPM IN DIET, TWA, 6359, 12718 PPM IN DIET, TWA
  carcinogen call: inactive; negative
Species: RAT, Strain/Sex: F344/FEMALE, Route: ORAL, 10000, 20000 PPM IN DIET, 10000, 20000 PPM IN DIET
  carcinogen call: inactive; negative
Species: RAT, Strain/Sex: F344/MALE, Route: ORAL, 10000, 20000 PPM IN DIET, 10000, 20000 PPM IN DIET
  carcinogen call: inactive; negative

## Nc1cccc2c(N)cccc12
Species: MOUSE, Strain/Sex: B6C3F1/FEMALE, Route: ORAL, 0.1, 0.2% IN DIET FOR 103 WK (STUDY DURATION: 105-109 WK), 0.1, 0.2% IN DIET FOR 103 WK (STUDY DURATION: 105-109 WK), Tumor Site: Type of Lesion: LUNG: ALVEOLAR/BRONCHIOLAR ADENOMA OR CARCINOMA, LIVER: HEPATOCELLULAR CARCINOMA, HEPATOCELLULAR ADENOMA OR CARCINOMA, T, Tumor Site: Type of Lesion: LUNG: ALVEOLAR/BRONCHIOLAR ADENOMA OR CARCINOMA, LIVER: HEPATOCELLULAR CARCINOMA, HEPATOCELLULAR ADENOMA OR CARCINOMA, T
  carcinogen call: active; positive
Species: MOUSE, Strain/Sex: B6C3F1/MALE, Route: ORAL, 0.1, 0.2% IN DIET FOR 103 WK (STUDY DURATION: 105-109 WK), 0.1, 0.2% IN DIET FOR 103 WK (STUDY DURATION: 105-109 WK), Tumor Site: Type of Lesion: THYROID GLAND: PAPILLARY ADENOMA OR FOLLICULAR CELL ADENOMA OR PAPILLARY CYSTADENOMA (NOS)
  carcinogen call: active; positive
Species: RAT, Strain/Sex: F344/FEMALE, Route: ORAL, 0.05, 0.1% IN DIET FOR 103 WK (STUDY DURATION: 106-110 WK), 0.05, 0.1% IN DIET FOR 103 WK (STUDY DURATION: 106-110 WK), Tumor Site: Type of Lesion: CLITORAL GLAND: ADENOMA (NOS) OR CARCINOMA (NOS), UTERUS: ENDOMETRIAL STROMAL POLYP
  carcinogen call: active; positive
Species: RAT, Strain/Sex: F344/MALE, Route: ORAL, 0.05, 0.1% IN DIET FOR 103 WK (STUDY DURATION: 106-109 WK), 0.05, 0.1% IN DIET FOR 103 WK (STUDY DURATION: 106-109 WK)
  carcinogen call: inactive; negative

## IC(I)I
Species: MOUSE, Strain/Sex: B6C3F1/FEMALE, Route: GAVAGE, 47, 93 MG/KG, TWA, 47, 93 MG/KG, TWA
  carcinogen call: inactive; negative
Species: MOUSE, Strain/Sex: B6C3F1/MALE, Route: GAVAGE, 47, 93 MG/KG, TWA, 47, 93 MG/KG, TWA
  carcinogen call: inactive; negative
Species: RAT, Strain/Sex: OSBORNE-MENDEL/FEMALE, Route: GAVAGE, 27, 55 MG/KG, TWA, 27, 55 MG/KG, TWA
  carcinogen call: inactive; negative
Species: RAT, Strain/Sex: OSBORNE-MENDEL/MALE, Route: GAVAGE, 71, 142 MG/KG, TWA, 71, 142 MG/KG, TWA
  carcinogen call: inactive; negative

## CC(O)C(=O)O (configuration not stated)
Species: RAT, Strain/Sex: F344/FEMALE, Route: ORAL, 2.5, 5% IN DRINKING WATER FOR 104 WK (MEAN TOTAL INTAKE 0; 237.7; 412.1 G/RAT) (STUDY DURATION: 113 WK), 2.5, 5% IN DRINKING WATER FOR 104 WK (MEAN TOTAL INTAKE 0; 237.7; 412.1 G/RAT) (STUDY DURATION: 113 WK)
  carcinogen call: inactive; negative
Species: RAT, Strain/Sex: F344/MALE, Route: ORAL, 2.5, 5% IN DRINKING WATER FOR 104 WK (MEAN TOTAL INTAKE 0; 329.4; 625.4 G/RAT) (STUDY DURATION: 113 WK), 2.5, 5% IN DRINKING WATER FOR 104 WK (MEAN TOTAL INTAKE 0; 329.4; 625.4 G/RAT) (STUDY DURATION: 113 WK)
  carcinogen call: inactive; negative

## C[C@H](CCC(=O)O)[C@H]1CC[C@H]2[C@@H]3CC[C@@H]4C[C@H](O)CC[C@]4(C)[C@H]3CC[C@]12C
Species: MOUSE, Strain/Sex: B6C3F1/FEMALE, Route: GAVAGE, 125, 250 MG/KG IN CORN OIL, 125, 250 MG/KG IN CORN OIL
  carcinogen call: inactive; negative
Species: MOUSE, Strain/Sex: B6C3F1/MALE, Route: GAVAGE, 125, 250 MG/KG IN CORN OIL, 125, 250 MG/KG IN CORN OIL
  carcinogen call: inactive; negative
Species: RAT, Strain/Sex: F344/FEMALE, Route: GAVAGE, 250, 500 MG/KG IN CORN OIL, 250, 500 MG/KG IN CORN OIL
  carcinogen call: inactive; negative
Species: RAT, Strain/Sex: F344/MALE, Route: GAVAGE, 250, 500 MG/KG IN CORN OIL, 250, 500 MG/KG IN CORN OIL
  carcinogen call: inactive; negative
